The values below come from the kinase profiling compilation of Christmann-Franck et al. (2016).

In general, residual activity refers to the signal under treatment as a percentage of the control signal.

Sequence of MARK1 (human) (Q9P0L2 whole entry, looked up): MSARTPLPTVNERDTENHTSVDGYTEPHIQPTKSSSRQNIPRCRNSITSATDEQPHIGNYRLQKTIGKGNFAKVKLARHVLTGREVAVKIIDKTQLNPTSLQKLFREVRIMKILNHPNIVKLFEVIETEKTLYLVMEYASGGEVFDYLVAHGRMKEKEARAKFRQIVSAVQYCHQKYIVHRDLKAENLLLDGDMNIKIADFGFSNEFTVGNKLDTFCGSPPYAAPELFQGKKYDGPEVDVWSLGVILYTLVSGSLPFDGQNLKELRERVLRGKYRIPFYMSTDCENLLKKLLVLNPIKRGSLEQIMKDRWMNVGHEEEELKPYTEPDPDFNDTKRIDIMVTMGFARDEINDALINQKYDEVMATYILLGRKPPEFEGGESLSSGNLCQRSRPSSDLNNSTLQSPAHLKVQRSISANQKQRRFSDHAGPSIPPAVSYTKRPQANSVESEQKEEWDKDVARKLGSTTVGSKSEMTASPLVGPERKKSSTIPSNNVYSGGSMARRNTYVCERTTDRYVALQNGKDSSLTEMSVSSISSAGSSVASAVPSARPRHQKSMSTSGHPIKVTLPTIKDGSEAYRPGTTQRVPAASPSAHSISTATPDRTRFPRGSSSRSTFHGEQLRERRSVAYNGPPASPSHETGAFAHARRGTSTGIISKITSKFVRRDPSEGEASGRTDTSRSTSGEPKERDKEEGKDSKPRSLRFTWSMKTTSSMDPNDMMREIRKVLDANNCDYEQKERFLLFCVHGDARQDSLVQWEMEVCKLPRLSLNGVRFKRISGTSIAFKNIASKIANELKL
Sequence of CAMKK2 (human) (Q96RR4 whole entry, looked up): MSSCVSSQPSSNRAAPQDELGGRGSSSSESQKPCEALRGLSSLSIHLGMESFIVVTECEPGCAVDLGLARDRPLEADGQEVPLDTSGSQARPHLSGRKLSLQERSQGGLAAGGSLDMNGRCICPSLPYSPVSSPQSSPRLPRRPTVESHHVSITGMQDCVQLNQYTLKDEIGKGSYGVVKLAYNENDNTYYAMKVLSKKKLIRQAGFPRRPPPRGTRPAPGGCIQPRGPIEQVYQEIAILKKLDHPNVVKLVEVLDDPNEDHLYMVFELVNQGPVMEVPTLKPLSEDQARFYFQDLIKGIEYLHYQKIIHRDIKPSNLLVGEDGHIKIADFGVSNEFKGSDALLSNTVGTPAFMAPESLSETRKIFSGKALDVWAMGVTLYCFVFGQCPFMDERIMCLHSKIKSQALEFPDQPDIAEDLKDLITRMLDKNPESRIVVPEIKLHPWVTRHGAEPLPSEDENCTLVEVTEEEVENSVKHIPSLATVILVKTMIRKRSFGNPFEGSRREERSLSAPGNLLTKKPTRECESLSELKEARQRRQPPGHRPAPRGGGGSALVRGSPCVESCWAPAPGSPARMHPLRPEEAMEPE
Sequence of PAK6 (human) (Q9NQU5 whole entry, looked up): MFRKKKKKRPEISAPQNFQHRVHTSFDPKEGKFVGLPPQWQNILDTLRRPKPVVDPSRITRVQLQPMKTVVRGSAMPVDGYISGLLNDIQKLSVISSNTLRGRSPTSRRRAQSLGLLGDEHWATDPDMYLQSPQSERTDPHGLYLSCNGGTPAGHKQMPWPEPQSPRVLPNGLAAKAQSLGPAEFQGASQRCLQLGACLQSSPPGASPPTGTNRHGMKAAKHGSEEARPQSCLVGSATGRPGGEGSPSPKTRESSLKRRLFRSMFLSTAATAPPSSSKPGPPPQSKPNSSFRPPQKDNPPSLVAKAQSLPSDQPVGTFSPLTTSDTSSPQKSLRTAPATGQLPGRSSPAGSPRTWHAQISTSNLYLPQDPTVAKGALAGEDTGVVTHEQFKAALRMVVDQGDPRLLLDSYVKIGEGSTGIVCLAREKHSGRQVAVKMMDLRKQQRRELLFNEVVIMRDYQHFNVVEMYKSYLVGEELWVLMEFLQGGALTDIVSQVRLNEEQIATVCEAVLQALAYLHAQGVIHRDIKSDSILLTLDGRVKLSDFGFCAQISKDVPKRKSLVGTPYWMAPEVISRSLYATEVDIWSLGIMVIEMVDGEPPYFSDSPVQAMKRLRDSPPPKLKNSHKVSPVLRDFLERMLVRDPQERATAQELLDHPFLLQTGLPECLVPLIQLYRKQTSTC

One test concerns the target EPHB4 (human) (UniProt P54760). In words: radiometric filter-binding kinase assay, Kinase HotSpot. Particulars: compound 0.5 µM; ATP 10 µM.
`O=C1Nc2ccccc2/C1=C1\Nc2ccccc2\C1=N/O`: the residual activity is 85.9%.

`O=C(Nc1cccc(Nc2cc(Nc3cccc(C(F)(F)F)c3)ncn2)c1)C1CC1`: the residual activity was found to be 97.8%.

Regarding `Cc1nc2cc3nc(-c4cccs4)cnc3cc2n1C`, the residual activity worked out at 92.1%.

Another test concerns the target RPS6KB2 (human) (UniProt Q9UBS0). The test is described as above. Particulars: compound 0.5 µM; ATP 10 µM.
As for `O=C1Nc2ccccc2/C1=C1\Nc2ccccc2\C1=N/O`, the residual activity worked out at 107%.

In the case of `O=C(Nc1cccc(Nc2cc(Nc3cccc(C(F)(F)F)c3)ncn2)c1)C1CC1`, the residual activity turned out to be 103%.

Take `Cc1nc2cc3nc(-c4cccs4)cnc3cc2n1C`: the residual activity came out at 98%.

For the next test, the target named is MARK2 (human) (UniProt Q7KZI7). The description is as above. To be noted: compound 0.5 µM; ATP 10 µM.
Sequence of MARK2 (human) (Q7KZI7 whole entry, looked up): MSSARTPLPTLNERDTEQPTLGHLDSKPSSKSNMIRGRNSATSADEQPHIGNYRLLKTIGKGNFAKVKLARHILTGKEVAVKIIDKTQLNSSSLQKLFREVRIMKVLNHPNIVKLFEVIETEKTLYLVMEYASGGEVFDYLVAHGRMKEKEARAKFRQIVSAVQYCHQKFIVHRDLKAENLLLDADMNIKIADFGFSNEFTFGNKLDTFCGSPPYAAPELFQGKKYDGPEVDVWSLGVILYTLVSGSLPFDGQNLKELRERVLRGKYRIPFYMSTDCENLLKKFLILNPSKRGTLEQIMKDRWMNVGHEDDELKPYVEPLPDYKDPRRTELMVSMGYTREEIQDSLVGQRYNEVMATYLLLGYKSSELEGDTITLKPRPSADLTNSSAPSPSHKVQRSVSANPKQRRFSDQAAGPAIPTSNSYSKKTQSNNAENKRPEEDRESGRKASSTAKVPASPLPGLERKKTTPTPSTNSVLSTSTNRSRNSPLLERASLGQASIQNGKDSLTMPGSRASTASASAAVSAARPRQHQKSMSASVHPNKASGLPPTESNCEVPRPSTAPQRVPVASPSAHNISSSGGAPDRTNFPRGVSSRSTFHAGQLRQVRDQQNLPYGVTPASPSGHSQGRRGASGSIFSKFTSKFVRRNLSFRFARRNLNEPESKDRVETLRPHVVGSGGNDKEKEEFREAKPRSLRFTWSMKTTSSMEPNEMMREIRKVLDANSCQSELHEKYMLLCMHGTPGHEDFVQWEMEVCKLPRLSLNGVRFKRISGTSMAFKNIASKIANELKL
On to `O=C1Nc2ccccc2/C1=C1\Nc2ccccc2\C1=N/O`, for which the residual activity came to 78.4%.

Turning to `O=C(Nc1cccc(Nc2cc(Nc3cccc(C(F)(F)F)c3)ncn2)c1)C1CC1`, the residual activity was 101%.

For `Cc1nc2cc3nc(-c4cccs4)cnc3cc2n1C`, the residual activity was 81.4%.

The target in the next test is PDPK1 (human) (UniProt O15530). Described as above. To be noted: compound 0.5 µM; ATP 10 µM.
Take `O=C1Nc2ccccc2/C1=C1\Nc2ccccc2\C1=N/O`: the residual activity was 93%.

Take `O=C(Nc1cccc(Nc2cc(Nc3cccc(C(F)(F)F)c3)ncn2)c1)C1CC1`: the residual activity was found to be 100%.

Turning to `Cc1nc2cc3nc(-c4cccs4)cnc3cc2n1C`, the residual activity amounted to 106%.

In another test the target is SRPK1 (human) (UniProt Q96SB4). The test is described as above. To be noted: compound 0.5 µM; ATP 10 µM.
Consider `O=C1Nc2ccccc2/C1=C1\Nc2ccccc2\C1=N/O`, for which the residual activity worked out at 89.3%.

Turning to `O=C(Nc1cccc(Nc2cc(Nc3cccc(C(F)(F)F)c3)ncn2)c1)C1CC1`, the residual activity stood at 86.4%.

On to `Cc1nc2cc3nc(-c4cccs4)cnc3cc2n1C`, for which the residual activity is 107%.

A further test deals with MYLK2 (human) (UniProt Q9H1R3). The test is described as above. Particulars: compound 0.5 µM; ATP 10 µM.
Sequence of MYLK2 (human) (Q9H1R3 whole entry, looked up): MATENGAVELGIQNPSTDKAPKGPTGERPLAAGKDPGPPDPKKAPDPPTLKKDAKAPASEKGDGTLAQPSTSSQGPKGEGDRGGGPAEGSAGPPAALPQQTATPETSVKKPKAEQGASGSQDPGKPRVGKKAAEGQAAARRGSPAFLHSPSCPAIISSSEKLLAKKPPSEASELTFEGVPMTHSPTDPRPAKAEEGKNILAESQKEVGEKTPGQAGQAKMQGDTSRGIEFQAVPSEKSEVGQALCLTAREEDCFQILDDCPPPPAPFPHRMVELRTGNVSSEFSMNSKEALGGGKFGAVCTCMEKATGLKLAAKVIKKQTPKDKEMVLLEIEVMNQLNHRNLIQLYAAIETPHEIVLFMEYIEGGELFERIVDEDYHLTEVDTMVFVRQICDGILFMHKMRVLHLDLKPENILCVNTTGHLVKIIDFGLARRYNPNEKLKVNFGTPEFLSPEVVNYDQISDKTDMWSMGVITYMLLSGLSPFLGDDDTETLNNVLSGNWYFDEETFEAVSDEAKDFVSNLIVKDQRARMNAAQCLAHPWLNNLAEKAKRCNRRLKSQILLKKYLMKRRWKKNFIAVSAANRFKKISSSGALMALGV
Regarding `O=C1Nc2ccccc2/C1=C1\Nc2ccccc2\C1=N/O`, the residual activity was determined as 41.1%.

Take `O=C(Nc1cccc(Nc2cc(Nc3cccc(C(F)(F)F)c3)ncn2)c1)C1CC1`: the residual activity came to 98.9%.

Turning to `Cc1nc2cc3nc(-c4cccs4)cnc3cc2n1C`, the residual activity was found to be 74.5%.

The target of a further test is MAPKAPK5 (human) (UniProt Q8IW41). Described as above. Particulars: compound 0.5 µM; ATP 10 µM.
Sequence of MAPKAPK5 (human) (Q8IW41 whole entry, looked up): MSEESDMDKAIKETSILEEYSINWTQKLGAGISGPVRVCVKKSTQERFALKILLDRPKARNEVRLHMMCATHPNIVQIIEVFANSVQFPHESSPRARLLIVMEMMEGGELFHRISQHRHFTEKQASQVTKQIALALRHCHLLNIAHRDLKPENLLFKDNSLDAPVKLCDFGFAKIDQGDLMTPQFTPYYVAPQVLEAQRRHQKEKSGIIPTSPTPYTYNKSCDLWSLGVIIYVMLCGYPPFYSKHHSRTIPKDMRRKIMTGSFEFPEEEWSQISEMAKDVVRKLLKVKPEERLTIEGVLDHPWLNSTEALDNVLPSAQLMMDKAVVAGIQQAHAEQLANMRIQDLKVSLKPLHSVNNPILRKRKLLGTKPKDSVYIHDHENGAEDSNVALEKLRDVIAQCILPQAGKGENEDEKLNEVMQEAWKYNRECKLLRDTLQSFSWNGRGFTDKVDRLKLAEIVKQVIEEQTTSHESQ
As to `O=C1Nc2ccccc2/C1=C1\Nc2ccccc2\C1=N/O`, the residual activity came to 101%.

Consider `O=C(Nc1cccc(Nc2cc(Nc3cccc(C(F)(F)F)c3)ncn2)c1)C1CC1`, for which the residual activity was found to be 101%.

As to `Cc1nc2cc3nc(-c4cccs4)cnc3cc2n1C`, the residual activity worked out at 100%.

For a further test, the target named is STK39 (human) (UniProt Q9UEW8). The description is as above. Particulars: compound 0.5 µM; ATP 10 µM.
With `O=C1Nc2ccccc2/C1=C1\Nc2ccccc2\C1=N/O`, the residual activity is 90.4%.

In the case of `O=C(Nc1cccc(Nc2cc(Nc3cccc(C(F)(F)F)c3)ncn2)c1)C1CC1`, the residual activity was found to be 94.1%.

For `Cc1nc2cc3nc(-c4cccs4)cnc3cc2n1C`, the residual activity came out at 79.8%.

The next test concerns the target AURKA (human) (UniProt O14965). Described as above. To be noted: compound 0.5 µM; ATP 10 µM.
As to `O=C1Nc2ccccc2/C1=C1\Nc2ccccc2\C1=N/O`, the residual activity worked out at 21.3%.

`O=C(Nc1cccc(Nc2cc(Nc3cccc(C(F)(F)F)c3)ncn2)c1)C1CC1`: the residual activity turned out to be 107%.

As for `Cc1nc2cc3nc(-c4cccs4)cnc3cc2n1C`, the residual activity was 84.8%.

A further test addresses PAK6 (human) (UniProt Q9NQU5). Described as above. To be noted: compound 0.5 µM; ATP 10 µM.
For `O=C1Nc2ccccc2/C1=C1\Nc2ccccc2\C1=N/O`, the residual activity was determined as 94.4%.

`O=C(Nc1cccc(Nc2cc(Nc3cccc(C(F)(F)F)c3)ncn2)c1)C1CC1`: the residual activity stood at 99.3%.

Take `Cc1nc2cc3nc(-c4cccs4)cnc3cc2n1C`: the residual activity was found to be 96.6%.

A further test has as its target MARK1 (human) (UniProt Q9P0L2). Described as above. Particulars: compound 0.5 µM; ATP 10 µM.
As to `O=C1Nc2ccccc2/C1=C1\Nc2ccccc2\C1=N/O`, the residual activity is 74.8%.

Take `O=C(Nc1cccc(Nc2cc(Nc3cccc(C(F)(F)F)c3)ncn2)c1)C1CC1`: the residual activity was 102%.

Turning to `Cc1nc2cc3nc(-c4cccs4)cnc3cc2n1C`, the residual activity was found to be 102%.

The next test has as its target FRK (human) (UniProt P42685). The description is as above. Particulars: compound 0.5 µM; ATP 10 µM.
As to `O=C1Nc2ccccc2/C1=C1\Nc2ccccc2\C1=N/O`, the residual activity was found to be 73.3%.

As for `O=C(Nc1cccc(Nc2cc(Nc3cccc(C(F)(F)F)c3)ncn2)c1)C1CC1`, the residual activity came out at 102%.

Consider `Cc1nc2cc3nc(-c4cccs4)cnc3cc2n1C`, for which the residual activity was found to be 98.9%.

The target in the next test is EPHA5 (human) (UniProt P54756). Described as above. To be noted: compound 0.5 µM; ATP 10 µM.
For the compound `O=C1Nc2ccccc2/C1=C1\Nc2ccccc2\C1=N/O`, the residual activity is 86.5%.

`O=C(Nc1cccc(Nc2cc(Nc3cccc(C(F)(F)F)c3)ncn2)c1)C1CC1`: the residual activity came to 106%.

For `Cc1nc2cc3nc(-c4cccs4)cnc3cc2n1C`, the residual activity came out at 105%.

A further test has as its target CAMKK2 (human) (UniProt Q96RR4). The description is as above. To be noted: compound 0.5 µM; ATP 10 µM.
For the compound `O=C1Nc2ccccc2/C1=C1\Nc2ccccc2\C1=N/O`, the residual activity worked out at 66.8%.

On to `O=C(Nc1cccc(Nc2cc(Nc3cccc(C(F)(F)F)c3)ncn2)c1)C1CC1`, for which the residual activity turned out to be 98.5%.

Regarding `Cc1nc2cc3nc(-c4cccs4)cnc3cc2n1C`, the residual activity turned out to be 112%.

For a further test, the target named is GSK3B (human) (UniProt P49841). The description is as above. Particulars: compound 0.5 µM; ATP 10 µM.
Sequence of GSK3B (human) (P49841 whole entry, looked up): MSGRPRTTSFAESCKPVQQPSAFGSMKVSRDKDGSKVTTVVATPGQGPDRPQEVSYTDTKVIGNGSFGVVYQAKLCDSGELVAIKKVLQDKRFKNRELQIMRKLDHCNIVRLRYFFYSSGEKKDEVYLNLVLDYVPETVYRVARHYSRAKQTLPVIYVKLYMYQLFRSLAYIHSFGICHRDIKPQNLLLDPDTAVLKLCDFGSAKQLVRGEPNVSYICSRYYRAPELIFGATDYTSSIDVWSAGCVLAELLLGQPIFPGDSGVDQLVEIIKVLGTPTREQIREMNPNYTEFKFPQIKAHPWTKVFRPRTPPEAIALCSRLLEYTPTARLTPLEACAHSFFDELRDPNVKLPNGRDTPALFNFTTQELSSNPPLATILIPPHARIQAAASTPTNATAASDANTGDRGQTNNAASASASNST
As for `O=C1Nc2ccccc2/C1=C1\Nc2ccccc2\C1=N/O`, the residual activity was 27.3%.

Turning to `O=C(Nc1cccc(Nc2cc(Nc3cccc(C(F)(F)F)c3)ncn2)c1)C1CC1`, the residual activity was 114%.

For the compound `Cc1nc2cc3nc(-c4cccs4)cnc3cc2n1C`, the residual activity was 109%.

A further test deals with CDC42BPA (human) (UniProt Q5VT25). The test is described as above. Particulars: compound 0.5 µM; ATP 10 µM.
Take `O=C1Nc2ccccc2/C1=C1\Nc2ccccc2\C1=N/O`: the residual activity was 93.7%.

Turning to `O=C(Nc1cccc(Nc2cc(Nc3cccc(C(F)(F)F)c3)ncn2)c1)C1CC1`, the residual activity stood at 77.7%.

As to `Cc1nc2cc3nc(-c4cccs4)cnc3cc2n1C`, the residual activity turned out to be 109%.

The target of the next test is TAOK3 (human) (UniProt Q9H2K8). The description is as above. Particulars: compound 0.5 µM; ATP 10 µM.
On to `O=C1Nc2ccccc2/C1=C1\Nc2ccccc2\C1=N/O`, for which the residual activity was 62.6%.

Consider `O=C(Nc1cccc(Nc2cc(Nc3cccc(C(F)(F)F)c3)ncn2)c1)C1CC1`, for which the residual activity stood at 98.7%.

Regarding `Cc1nc2cc3nc(-c4cccs4)cnc3cc2n1C`, the residual activity was 116%.

In the next test the target is PRKACA (human) (UniProt P17612). Described as above. Particulars: compound 0.5 µM; ATP 10 µM.
As to `O=C1Nc2ccccc2/C1=C1\Nc2ccccc2\C1=N/O`, the residual activity amounted to 107%.

With `O=C(Nc1cccc(Nc2cc(Nc3cccc(C(F)(F)F)c3)ncn2)c1)C1CC1`, the residual activity amounted to 102%.

As for `Cc1nc2cc3nc(-c4cccs4)cnc3cc2n1C`, the residual activity was found to be 100%.

The target in the next test is MLTK (human) (UniProt Q9NYL2). The description is as above. Particulars: compound 0.5 µM; ATP 10 µM.
As to `O=C1Nc2ccccc2/C1=C1\Nc2ccccc2\C1=N/O`, the residual activity amounted to 89.6%.

Consider `O=C(Nc1cccc(Nc2cc(Nc3cccc(C(F)(F)F)c3)ncn2)c1)C1CC1`, for which the residual activity was found to be 97.1%.

`Cc1nc2cc3nc(-c4cccs4)cnc3cc2n1C`: the residual activity was 89.1%.

For another test, the target named is NTRK1 (human) (UniProt P04629). The description is as above. Particulars: compound 0.5 µM; ATP 10 µM.
As to `O=C1Nc2ccccc2/C1=C1\Nc2ccccc2\C1=N/O`, the residual activity amounted to 12.4%.

Take `O=C(Nc1cccc(Nc2cc(Nc3cccc(C(F)(F)F)c3)ncn2)c1)C1CC1`: the residual activity stood at 99.6%.

For `Cc1nc2cc3nc(-c4cccs4)cnc3cc2n1C`, the residual activity stood at 113%.

For the next test, the target named is MAPK10 (human) (UniProt P53779). The description is as above. Particulars: compound 0.5 µM; ATP 10 µM.
Sequence of MAPK10 (human) (P53779 whole entry, looked up): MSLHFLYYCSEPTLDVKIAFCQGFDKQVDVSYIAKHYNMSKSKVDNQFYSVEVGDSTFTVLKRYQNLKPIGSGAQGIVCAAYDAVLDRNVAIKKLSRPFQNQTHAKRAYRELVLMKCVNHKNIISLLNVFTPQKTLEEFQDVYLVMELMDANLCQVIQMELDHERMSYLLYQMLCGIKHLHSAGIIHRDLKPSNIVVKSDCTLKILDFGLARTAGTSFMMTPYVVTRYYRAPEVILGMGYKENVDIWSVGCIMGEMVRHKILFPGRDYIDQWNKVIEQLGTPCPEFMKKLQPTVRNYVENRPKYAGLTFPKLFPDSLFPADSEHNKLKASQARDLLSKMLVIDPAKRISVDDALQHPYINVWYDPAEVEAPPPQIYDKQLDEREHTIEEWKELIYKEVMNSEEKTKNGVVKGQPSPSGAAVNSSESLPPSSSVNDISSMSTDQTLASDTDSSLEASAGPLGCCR
As for `O=C1Nc2ccccc2/C1=C1\Nc2ccccc2\C1=N/O`, the residual activity was 96.4%.

For `O=C(Nc1cccc(Nc2cc(Nc3cccc(C(F)(F)F)c3)ncn2)c1)C1CC1`, the residual activity is 83.4%.

In the case of `Cc1nc2cc3nc(-c4cccs4)cnc3cc2n1C`, the residual activity worked out at 96.3%.
